ChEMBL document CHEMBL4422697, “Structural Characterization of Cranberry Arabinoxyloglucan Oligosaccharides” (J Nat Prod, 2019)
Activity calls are given as the source filed them. The rule behind the calls is not given here.

How the values were obtained:
Escherichia coli [1] = experiment: Growth inhibition of Escherichia coli ATCC 35218 at 50 ug/ml relative to control; format: organism-based; settings: in vivo
Staphylococcus aureus [2] = experiment: Growth inhibition of methicillin-[…] Staphylococcus aureus ATCC 33591 at 50 ug/ml relative to control; format: organism-based; settings: in vivo
Candida albicans = experiment: Growth inhibition of Candida albicans ATCC 90028 at 50 ug/ml relative to control; format: organism-based; settings: in vivo
Escherichia coli [3] = experiment: Antiadhesive activity against P-fimbriated Escherichia coli ATCC 700928 assessed as inhibition of bacterial adhesion to human HTB4 cells incubated for 30 mins in presence of [3H]uridine prior to infection measured after 1 hr by scintillation counting method; format: functional, organism-based
Pichia kudriavzevii = experiment: Growth inhibition of Candida krusei ATCC 6258 at 50 ug/ml relative to control; format: organism-based; settings: in vivo
Nakaseomyces glabratus = experiment: Growth inhibition of Candida glabrata ATCC 90030 at 50 ug/ml relative to control; format: organism-based; settings: in vivo
Aspergillus fumigatus = experiment: Growth inhibition of Aspergillus fumigatus ATCC 204305 at 50 ug/ml relative to control; format: organism-based; settings: in vivo
MDA-MB-231 = experiment: Cytotoxicity against human MDA-MB-231 cells assessed as reduction in cell viability at 10 to 100 uM after 48 hrs by sulforhodamine B assay; format: cell-based; settings: mda-mb-231, 48 h
[4] = tested on: Mycobacterium intracellulare; experiment: Growth inhibition of Mycobacterium intracellulare ATCC 23068 at 50 ug/ml relative to control; format: organism-based; settings: in vivo
Plasmodium falciparum = experiment: Growth inhibition of Plasmodium falciparum D6 at 15.9 ug/ml relative to control; format: organism-based; settings: in vivo
Staphylococcus aureus [5] = experiment: Growth inhibition of Staphylococcus aureus ATCC 29213 at 50 ug/ml relative to control; format: organism-based; settings: in vivo
T47D = experiment: Cytotoxicity against human T47D cells assessed as reduction in cell viability at 10 to 100 uM after 48 hrs by sulforhodamine B assay; format: cell-based
Pseudomonas aeruginosa = experiment: Growth inhibition of Pseudomonas aeruginosa ATCC 27853 at 50 ug/ml relative to control; format: organism-based; settings: in vivo
Leishmania donovani = experiment: Growth inhibition of Leishmania donovani at 80 ug/ml relative to control; format: organism-based; settings: in vivo
Cryptococcus neoformans = experiment: Growth inhibition of Cryptococcus neoformans ATCC 90113 at 50 ug/ml relative to control; format: organism-based; settings: in vivo

SMILES | growth inhibition (GI) (Escherichia coli [1]) | growth inhibition (GI) (Staphylococcus aureus [2]) | growth inhibition (GI) (Candida albicans) | inhibition (Escherichia coli [3]) | growth inhibition (GI) (Pichia kudriavzevii) | growth inhibition (GI) (Nakaseomyces glabratus) | growth inhibition (GI) (Aspergillus fumigatus) | Activity (MDA-MB-231) | growth inhibition (GI) [4] | growth inhibition (GI) (Plasmodium falciparum) | growth inhibition (GI) (Staphylococcus aureus [5]) | Activity (T47D) | growth inhibition (GI) (Pseudomonas aeruginosa) | growth inhibition (GI) (Leishmania donovani) | growth inhibition (GI) (Cryptococcus neoformans)
OC[C@@H]1O[C@@H](O[C@H]2[C@@H](OC[C@H]3O[C@@H](O)[C@H](O)[C@@H](O)[C@@H]3O[C@@H]3O[C@H](CO)[C@@H](O[C@@H]4O[C@H](COC5OC[C@@H](O)[C@H](O)[C@H]5O[C@@H]5O[C@@H](CO)[C@H](O)[C@H]5O)[C@@H](O[C@@H]5O[C@H](CO)[C@@H](O)[C@H](O)[C@H]5O)[C@H](O)[C@H]4O)[C@H](O)[C@H]3O)OC[C@@H](O)[C@@H]2O)[C@H](O)[C@H]1O (single isomer, unassigned) | < 50% | < 50% | < 50% | inactive | < 50% | < 50% | < 50% | Non-Toxic | < 50% | < 50% | < 50% | Non-Toxic | < 50% | < 50% | < 50%
OC[C@@H]1O[C@@H](O[C@H]2[C@@H](OC[C@H]3O[C@@H](O)[C@H](O)[C@@H](O)[C@@H]3O[C@@H]3O[C@H](CO)[C@@H](O[C@@H]4O[C@H](COC5OC[C@@H](O)[C@H](O)[C@H]5O)[C@@H](O[C@@H]5O[C@H](CO)[C@@H](O)[C@H](O)[C@H]5O)[C@H](O)[C@H]4O)[C@H](O)[C@H]3O)OC[C@@H](O)[C@@H]2O)[C@H](O)[C@H]1O (single isomer, unassigned) | < 50% | < 50% | < 50% | inactive | < 50% | < 50% | < 50% | Non-Toxic | < 50% | < 50% | < 50% | Non-Toxic | < 50% | < 50% | < 50%
